Test results published in patent US20260174878A1, “IRAK4 DEGRADATION AGENT AND USE THEREOF” (LEADINGTAC PHARMACEUTICAL (SHAOXING) CO., LTD., priority 2022, published 2026).

Assays:
[1] = test system: imiquimod-induced mouse psoriasis model; experiment: Imiquimod-induced C57 mouse psoriasis model; type: in vivo, C57BL/6 mice; conditions: p<0.0001
Description: Then 10% of the total volume of Solutol was added, and the mixture was subjected to vortex ultrasonic treatment until clear. […] The compound was formulated fresh for each use.
B. Imiquimod sensitization and drug intervention on C57BL/6J mice were conducted, with specific administration times shown in Table 6. • i. On Day 1, the backs of the mice were shaved, ensuring consistent area using a mold, approximately 2 cm×3 cm, and 60 mice were selected; • ii. the mice were randomly divided into 6 groups based on body weight and right ear thickness, with 10 mice per group; • iii. 6 to induce psoriasis symptoms in the model mice, imiquimod was applied on the back skin and right ear of the mice in groups G2-G6 for sensitization at noon on Day 0, and this continued for 7 days. • iv. […] Endpoint sampling of the mice was performed on Day 5 or Day 7.
• Clinical score and right ear thickness.

IRAK4 kinase = target: T1, IRAK4 kinase (Homo sapiens, UniProt Q9NWZ3); experiment: IRAK4 kinase activity test (KinEASE-STK S1 HTRF kit); type: biochemical; conditions: IRAK4 kinase 2.5 nM, 7 μM adenosine triphosphate, 37° C. 120 min
T1 construct: purchased Carna
T1 sequence (Q9NWZ3 1-460): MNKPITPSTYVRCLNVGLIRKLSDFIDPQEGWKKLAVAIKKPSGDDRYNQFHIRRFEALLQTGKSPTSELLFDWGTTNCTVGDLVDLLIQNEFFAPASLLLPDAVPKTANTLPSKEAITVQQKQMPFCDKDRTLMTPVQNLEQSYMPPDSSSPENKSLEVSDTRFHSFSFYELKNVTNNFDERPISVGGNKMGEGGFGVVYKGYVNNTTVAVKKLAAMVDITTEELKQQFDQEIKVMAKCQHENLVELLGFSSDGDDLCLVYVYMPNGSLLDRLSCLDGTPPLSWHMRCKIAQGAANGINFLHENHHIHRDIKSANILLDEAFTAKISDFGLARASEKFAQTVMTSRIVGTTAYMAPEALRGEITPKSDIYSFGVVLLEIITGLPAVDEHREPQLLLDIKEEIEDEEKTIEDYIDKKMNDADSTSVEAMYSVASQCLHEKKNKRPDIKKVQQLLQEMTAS
Description: Then 2.5 nM IRAK4 kinase (Carna), 1 μM biotinylated polypeptide substrate (Cisbio), and 7 μM adenosine triphosphate (Sigma-Aldrich) were sequentially added, and the mixtures were incubated at 37° C. for 120 min. Subsequently, an anti-phosphoserine/threonine antibody (Cisbio) conjugated with a europium element compound and streptavidin conjugated with a modified XL665 (Cisbio) were added to the reaction system to stop the reaction. After 1 h of incubation at room temperature, the fluorescence intensity of each well was measured at the excitation wavelength of 337 nm and the emission wavelengths of 620 nm and 665 nm with a microplate reader EnVision (PerkinElmer) in the HTRF mode, and Ratio values were calculated using the formula: Ratio=(665 nm/620 nm)×10^4. The inhibition rates of the compounds at each concentration were calculated by comparison with the fluorescence intensity ratio of the control group. Then non-linear curve fittings for logarithmic concentration-inhibition rate were performed using GraphPad Prism 7, and the IC50 values of the compounds were obtained.

[2] = target: T2, IRAK4 protein in normal human PBMCs (Homo sapiens, UniProt Q9NWZ3); experiment: Degradation of IRAK4 protein in normal human PBMCs (AlphaLISA); type: cell-based; conditions: 24 h incubation
T2 construct: host or cells: normal human PBMCs
T2 sequence (Q9NWZ3 1-460): T1 sequence (Q9NWZ3 1-460)
Outline: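 Cryopreserved normal human PBMCs treated with compound at 0.01-3000 nM (0.25% DMSO) for 24 h at 37 °C. IRAK4 in lysates quantified by AlphaLISA against a standard curve and normalized to BCA total protein. Degradation versus control fitted to give DC50 and Dmax.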

SMILES	IC50 (IRAK4 kinase)	DC50 [2]	Dmax [2]	inhibition rate relative to vehicle control (AUC of clinical score) ([1]; ointment 75 mg back + 24 mg right ear/mouse topical QD)	inhibition rate relative to vehicle control (AUC of clinical score) ([1]; 5 mpk p.o. QD)
C=C1/C(=C\C=C2/CCC[C@]3(C)[C@@H]([C@H](C)CCCC(C)(C)O)CC[C@@H]23)C[C@@H](O)C[C@@H]1O [calcitriol]				44.5%	
CC(=O)OCC(=O)[C@@]1(O)[C@H](C)C[C@H]2[C@@H]3CCC4=CC(=O)C=C[C@]4(C)[C@@]3(F)[C@@H](O)C[C@@]21C [dexamethasone, Dexamethasone acetate]					20.7%
O=C1CCN(c2cc(C(=O)N3CCC4(CCN(C[C@H]5CC[C@H](n6cc(NC(=O)c7cnn8ccc(N9CCOCC9)nc78)c(C(F)F)n6)CC5)CC4)CC3)ccc2Cl)C(=O)N1 [Example 8, N-(1-((1R,4R)-4-((9-(4-chloro-3-(2,4-dioxotetrahydropyrimidin-1(2H)-yl)benzoyl)-3,9-diazaspiro [5.5]undecan-3-yl)methyl)cyclohexyl)-3-(difluoromethyl)-1H-pyrazol-4-yl)-5-morpholinopyrazolo[1,5-a]pyrimidine-3-carboxamide]	17 nM	0.8 nM	99.1%		

The next lines start with results.

IC50 (IRAK4 kinase)	DC50 [2]	Dmax [2]	SMILES	inhibition rate relative to vehicle control (AUC of clinical score) ([1]; ointment 75 mg back + 24 mg right ear/mouse topical QD)	inhibition rate relative to vehicle control (AUC of clinical score) ([1]; 5 mpk p.o. QD)
3.86 nM	1.49 nM	98.8%	COc1ccc(C(=O)N2CCC(CCN(C)C[C@H]3CC[C@H](n4cc(NC(=O)c5cnn6ccc(N7CCC[C@H](N)C7)nc56)c(C(F)F)n4)CC3)CC2)cc1N1CCC(=O)NC1=O [Example 15, 5-((S)-3-aminopiperidin-1-yl)-N-(3-(difluoromethyl)-1-((1R,4S)-4-(((2-(1-(3-(2,4-dioxotetrahydropyrimidin-1(2H)-yl)-4-methoxybenzoyl)piperidin-4-yl)ethyl)(methyl)amino)methyl)cyclohexyl)-1H-pyrazol-4-yl)pyrazolo[1,5-a]pyrimidine-3-carboxamide]		
3.36 nM	0.27 nM	98.2%	COc1ccc(C(=O)N2CCC(CCN(C)C[C@H]3CC[C@H](n4cc(NC(=O)c5cnn6ccc(N7CCC[C@H](O)C7)nc56)c(C(F)F)n4)CC3)CC2)cc1N1CCC(=O)NC1=O [Example 14, N-(3-(difluoromethyl)-1-((1R,4S)-4-(((2-(1-(3-(2,4-dioxotetrahydropyrimidin-1(2H)-yl)-4-methoxybenzoyl)piperidin-4-yl)ethyl)(methyl)amino)methyl)cyclohexyl)-1H-pyrazol-4-yl)-5-((S)-3-hydroxypiperidin-1-yl)pyrazolo[1,5-a]pyrimidine-3-carboxamide]		
4.64 nM	0.39 nM	98%	CN(CCC1CCN(C(=O)c2ccc(Cl)c(N3CCC(=O)NC3=O)c2)CC1)C[C@H]1CC[C@H](n2cc(NC(=O)c3cnn4ccc(N5CCOCC5)nc34)c(C(F)F)n2)CC1 [Example 9, N-(1-((1R,4R)-4-(((2-(1-(4-chloro-3-(2,4-dioxotetrahydropyrimidin-1(2H)-yl)benzoyl)piperidin-4-yl)ethyl)(methyl)amino)methyl)cyclohexyl)-3-(difluoromethyl)-1H-pyrazol-4-yl)-5-morpholinopyrazolo [1,5-a]pyrimidine-3-carboxamide]		
